# System: nitric oxide release in rat tissue
# Test: Nitric oxide release in rat tissue exposed to hyperglycemia in vitro, with sepiapterin supplementation
# Settings: hyperglycemia 55 mM, 48 hr incubation, sepiapterin 100 μM, n=4 per group, FIG. 5
# Protocol: FIG. 5. Effect of hyperglycemia (55 mM, 48 hr incubation) and supplementation of sepiapterin (SEP, 100 μM), on nitric oxide release in rat tissue. The bars represent mean f SEM. *p<0.05 non-glycemic (N.G, Control) vs. hyperglycemic (H.G); #p<0.05 N.G vs. SEP, t-test (n=4 in each group). […] Protein expression for DHFR was reduced in diabetic female rats (FIGS. 3A-3B). […] All the above findings correlated well with the impaired saliva secretion and water intake (FIGS. 1A-1B) and e/n NOS activity (FIGS. 3A-3B) as measured by dimerization in SM gland tissue. Therefore, dietary supplementation of sepiapterin improves e/n NOSα dimerization, nNOS activity, NO synthesis and saliva secretion.
structure (smiles),measurement,value
C[C@H](O)C(=O)C1=Nc2c(nc(N)[nH]c2=O)NC1 [sepiapterin],NO release in the tissue exposed to hyperglycemia,improved NO release

# From US11931364B2, “Modulation of the nitric oxide synthase pathway for oral health” (Meharry Medical College, priority 2016, dated 2024)
